In PubChem BioAssay AID1963434 (Molecular Pharmacology Branch, DTP, NCI, 2024):

Tested on: 755483-174-R-J1-PDC complex spheroid growth, percent test/control
Test: Anticancer human tumor 755483-174-R-J1-PDC patient-derived rhabdomyosarcoma cell line growth inhibition [Asc]
Details: for IC50: curve of first compound; for viability, T/C: stronger effect = lower value; active = viability on the fitted dose curve at most 10% of control; inactive = the rest
Protocol: Multicellular complex tumor spheroid response to apoptosis pathway targeting inhibitors Alrizomadlin, Pelcitoclax, and Dasminapant in combination with a variety of drugs and investigational agents in selected tumor cell lines
The MDM2 inhibitor alrizomadlin, the Bcl-2/Bcl-xL inhibitor pelcitoclax, and the IAPs inhibitor dasminapant were evaluated both individually and in combination with standard of care and investigational anticancer small molecules within a complex spheroid model of solid tumors. . Complex spheroids include a stromal component modeled by human endothelial cells (HUVEC) and fibroblasts modeled by human mesenchymal stem cells (MSCs). The concentration ranges selected for each drug and investigational agent were based upon clinically achievable concentrations if the clinical Cmax of the agent was known.
Compounds. The drugs and investigational agents: alrizomadlin (APG-115; NSC831270), pelcitoclax (APG-1252; NSC835773), dasminapant (APG-1387;NSC834197), TAK-243 (NSC785004), copanlisib (NSC809693), olaparib (NSC753686), talazoparib (NSC767125), cobimetinib (NSC 768068), eltanexor (KPT-8602, NSC 794443), abemaciclib (NSC 768073), sotorasib (NSC818433), adagrasib (NSC 831453), MRTX-1133 (NSC 836407), Iadademestat (ORY1001, NSC 806812), and RMC-4630 (NSC839698), were obtained from the NCI Developmental Therapeutics Program Chemical Repository. The FDA-approved anticancer drug set is available from the Developmental Therapeutics Program at https://dtp.cancer.gov/organization/dscb/obtaining/available plates.htm. […] The stock solutions were prepared in dimethyl sulfoxide (DMSO, Sigma-Aldrich, St. Louis, MO, cat. D2650) at 800-fold the tested concentration and stored at -70 degrees C prior to their use. All drugs and investigational agents were tested over a range starting from a high concentration at or near the clinical Cmax and decreasing in half-log increments. If the clinical Cmax for an agent had not been determined, the highest concentration tested was 10 microM.
The patient-derived cancer (PDC) cell lines include five colon adenocarcinomas: 186277-243-T-J2-PDC, 616215-338-R-J1-PDC, 439559-082-T-J2-PDC, 463943-066-T-J2-PDC, and 519858-162-T-J1-PDC; three pancreatic carcinomas: 323965-272-R-J2-PDC, 521955-158-R6-J3-PDC, and 521955-158-R2-J5-PDC; two uterine sarcomas: 327498-152-R-J2-PDC and 993429-296-R-J1-PDC; two rhabdomyosarcomas: 755483-174-R-J1-PDC and 772245-204-R-J1-PDC; two soft tissue sarcomas: 126254-015-R-J1-PDC and 494315-158-R-J1-PDC; two malignant fibrous histiocytomas: 317291-083-R-J1-PDC and 596521-263-R-J1-PDC; two breast carcinomas: 171881-019-R-J1-PDC and 885512-296-R-J2-PDC; and one ovarian carcinoma: 6556581-035-R-J-PDC were obtained from the NCI PDMR, (https://pdmr.cancer.gov). The established cell lines HSSY-2 synovial sarcoma (RRID:CVCL 8719), SYO-1 synovial sarcoma (RRID:CVCL_7146), MPNST malignant peripheral neural sheath tumor were obtained from the Sloan Kettering Institute. The following established cell lines were purchased from the American Type Culture Collection (ATCC, Manassas, VA), Sor the received from the NCI repository:, PANC-1 pancreatic carcinoma (CRL-1469, RRID:CVCL_0480), OVCAR-5 ovarian carcinoma (RRID:CVCL_1628), OVCAR-8 ovarian carcinoma (RRID:CVCL_1629), , MCF-7 breast carcinoma (CRL-12584, RRID:CVCL_0031), MDA-MB-231 breast carcinoma (CRL-12532, RRID:CVCL_0062), NCI-H1876 small cell lung carcinoma (CRL-5902, RRID:CVCL_1503), NCI-H510A small cell lung carcinoma (HTB-184, RRID:CVCL_1565), NCI-H1417 (CRL-5869, RRID:CVCL_1469), and NCI-H196 small cell lung carcinoma (CRL-5823, RRID:CVCL_1509). Dr. Peter Houghton (Greehey Children's Cancer Research Institute, University of Texas Health Science Center, San Antonio, TX) provided Rh-18 rhabdomyosarcoma (RRID:CVCL_1659). Pooled donor human umbilical vein endothelial cells (HUVEC, Lonza, cat. CC-2519) and human mesenchymal stem cells (hMSC, Lonza, cat. PT-2501) were purchased from Lonza (Walkersville, MD).
Cell Culture. […]

[1] = second compound 0.03 µM, first compound 0.00316 µM
[2] = second compound 0.03 µM, first compound 0.01 µM
[3] = second compound 0.03 µM, first compound 0.0316 µM
[4] = second compound 0.03 µM, first compound 0.1 µM
[5] = second compound 0.0949 µM, first compound 0.00316 µM
[6] = second compound 0.0949 µM, first compound 0.01 µM
[7] = second compound 0.0949 µM, first compound 0.0316 µM
[8] = second compound 0.0949 µM, first compound 0.1 µM
[9] = second compound 0.3 µM, first compound 0.00316 µM
[10] = second compound 0.3 µM, first compound 0.01 µM
[11] = second compound 0.3 µM, first compound 0.0316 µM
[12] = second compound 0.3 µM, first compound 0.1 µM
[13] = second compound 0.949 µM, first compound 0.00316 µM
[14] = second compound 0.949 µM, first compound 0.01 µM
[15] = second compound 0.949 µM, first compound 0.0316 µM
[16] = second compound 0.949 µM, first compound 0.1 µM
[17] = second compound 3 µM, first compound 0.00316 µM
[18] = second compound 3 µM, first compound 0.01 µM
[19] = second compound 3 µM, first compound 0.0316 µM
[20] = second compound 3 µM, first compound 0.1 µM
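Also: spheroids exposed to compounds for seven days before readout.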

CCN1CCN(Cc2ccc(Nc3ncc(F)c(-c4cc(F)c5nc(C)n(C(C)C)c5c4)n3)nc2)CC1 + CCN1C(C(=O)NC23CCC(C(=O)O)(CC2)CC3)C(c2cccc(Cl)c2F)C2(C(=O)Nc3cc(Cl)ccc32)C12CCCCC2
inactive: viability, T/C [1] 103% | viability, T/C [2] 97.3% | viability, T/C [3] 112% | viability, T/C [4] 127% | viability, T/C (second compound 0.03 µM, first compound 0.316 µM) 108% | viability, T/C (second compound 0.03 µM, first compound 1 µM) 133% | viability, T/C [5] 89.3% | viability, T/C [6] 116% | viability, T/C [7] 115% | viability, T/C [8] 109% | viability, T/C (second compound 0.0949 µM, first compound 0.316 µM) 138% | viability, T/C (second compound 0.0949 µM, first compound 1 µM) 116% | viability, T/C [9] 87% | viability, T/C [10] 103% | viability, T/C [11] 124% | viability, T/C [12] 113% | viability, T/C (second compound 0.3 µM, first compound 0.316 µM) 124% | viability, T/C (second compound 0.3 µM, first compound 1 µM) 127% | viability, T/C [13] 98.7% | viability, T/C [14] 114% | viability, T/C [15] 122% | viability, T/C [16] 86.8% | viability, T/C (second compound 0.949 µM, first compound 0.316 µM) 129% | viability, T/C (second compound 0.949 µM, first compound 1 µM) 137% | viability, T/C [17] 107% | viability, T/C [18] 109% | viability, T/C [19] 98.6% | viability, T/C [20] 121% | viability, T/C (second compound 3 µM, first compound 0.316 µM) 126% | viability, T/C (second compound 3 µM, first compound 1 µM) 113%
> 1000 nM: IC50 (second compound 0.03 µM) | IC50 (second compound 0.0949 µM) | IC50 (second compound 0.3 µM) | IC50 (second compound 0.949 µM) | IC50 (second compound 3 µM)

NC(=O)C(=Cn1cnc(-c2cc(C(F)(F)F)cc(C(F)(F)F)c2)n1)c1cncnc1 + CCN1C(C(=O)NC23CCC(C(=O)O)(CC2)CC3)C(c2cccc(Cl)c2F)C2(C(=O)Nc3cc(Cl)ccc32)C12CCCCC2
3.15 nM: IC50 (second compound 3 µM)
6.47 nM: IC50 (second compound 0.3 µM)
4.97 nM: IC50 (second compound 0.03 µM)
active: viability, T/C (second compound 0.03 µM, first compound 0.03 µM) 12.8% | viability, T/C (second compound 0.03 µM, first compound 0.0949 µM) 7.75% | viability, T/C (second compound 0.03 µM, first compound 0.3 µM) 7.18% | viability, T/C (second compound 0.0949 µM, first compound 0.0949 µM) 8.83% | viability, T/C (second compound 0.0949 µM, first compound 0.3 µM) 5.38% | viability, T/C (second compound 0.3 µM, first compound 0.03 µM) 13.3% | viability, T/C (second compound 0.3 µM, first compound 0.0949 µM) 7.32% | viability, T/C (second compound 0.3 µM, first compound 0.3 µM) 4.64% | viability, T/C (second compound 0.949 µM, first compound 0.0949 µM) 8.43% | viability, T/C (second compound 0.949 µM, first compound 0.3 µM) 5.55% | viability, T/C (second compound 3 µM, first compound 0.0949 µM) 5.81% | viability, T/C (second compound 3 µM, first compound 0.3 µM) 6.67%
5.41 nM: IC50 (second compound 0.949 µM)
3.99 nM: IC50 (second compound 0.0949 µM)
inactive: viability, T/C (second compound 0.03 µM, first compound 0.000949 µM) 92% | viability, T/C (second compound 0.03 µM, first compound 0.003 µM) 71.4% | viability, T/C (second compound 0.03 µM, first compound 0.00949 µM) 22.4% | viability, T/C (second compound 0.0949 µM, first compound 0.000949 µM) 84% | viability, T/C (second compound 0.0949 µM, first compound 0.003 µM) 56% | viability, T/C (second compound 0.0949 µM, first compound 0.00949 µM) 31.7% | viability, T/C (second compound 0.0949 µM, first compound 0.03 µM) 14.7% | viability, T/C (second compound 0.3 µM, first compound 0.000949 µM) 74.2% | viability, T/C (second compound 0.3 µM, first compound 0.003 µM) 75.5% | viability, T/C (second compound 0.3 µM, first compound 0.00949 µM) 37.6% | viability, T/C (second compound 0.949 µM, first compound 0.000949 µM) 83.9% | viability, T/C (second compound 0.949 µM, first compound 0.003 µM) 66.7% | viability, T/C (second compound 0.949 µM, first compound 0.00949 µM) 34.4% | viability, T/C (second compound 0.949 µM, first compound 0.03 µM) 11.9% | viability, T/C (second compound 3 µM, first compound 0.000949 µM) 72.8% | viability, T/C (second compound 3 µM, first compound 0.003 µM) 49.2% | viability, T/C (second compound 3 µM, first compound 0.00949 µM) 32.9% | viability, T/C (second compound 3 µM, first compound 0.03 µM) 16%

NC1CCC(NC2CC2c2ccccc2)CC1 (stereo not given) + CCN1C(C(=O)NC23CCC(C(=O)O)(CC2)CC3)C(c2cccc(Cl)c2F)C2(C(=O)Nc3cc(Cl)ccc32)C12CCCCC2
inactive: viability, T/C (second compound 0.03 µM, first compound 0.000316 µM) 93.2% | viability, T/C (second compound 0.03 µM, first compound 0.001 µM) 67.1% | viability, T/C [1] 129% | viability, T/C [2] 77.7% | viability, T/C [3] 87% | viability, T/C [4] 65.3% | viability, T/C (second compound 0.0949 µM, first compound 0.000316 µM) 90% | viability, T/C (second compound 0.0949 µM, first compound 0.001 µM) 100% | viability, T/C [5] 93.2% | viability, T/C [6] 96.4% | viability, T/C [7] 85.1% | viability, T/C [8] 68.8% | viability, T/C (second compound 0.3 µM, first compound 0.000316 µM) 110% | viability, T/C (second compound 0.3 µM, first compound 0.001 µM) 105% | viability, T/C [9] 112% | viability, T/C [10] 87.3% | viability, T/C [11] 95.1% | viability, T/C [12] 112% | viability, T/C (second compound 0.949 µM, first compound 0.000316 µM) 108% | viability, T/C (second compound 0.949 µM, first compound 0.001 µM) 103% | viability, T/C [13] 92% | viability, T/C [14] 98.5% | viability, T/C [15] 78.3% | viability, T/C [16] 88.5% | viability, T/C (second compound 3 µM, first compound 0.000316 µM) 92.2% | viability, T/C (second compound 3 µM, first compound 0.001 µM) 94% | viability, T/C [17] 90.2% | viability, T/C [18] 61.6% | viability, T/C [19] 86.6% | viability, T/C [20] 88.5%
> 100 nM: IC50 (second compound 0.03 µM) | IC50 (second compound 0.0949 µM) | IC50 (second compound 0.3 µM) | IC50 (second compound 0.949 µM) | IC50 (second compound 3 µM)
